According to patent EP3800188A1, “SUBSTITUTED PYRAZOLOPYRIMIDINES AS IRAK4 INHIBITORS” (Bayer AG, priority 2019, dated 2021):
pIC50: −log10 of the molar value.

Legend:
human IRAK4 = target: T1, human IRAK4 (Homo sapiens, UniProt Q9NWZ3); assay: Human IRAK4 kinase activity inhibition assay (IRAK4 TR-FRET assay); format: biochemical; settings: 1 mM ATP, GST-human IRAK4, average or median values
T1 construct: GST (N); made in house; host or cells: baculovirus-infected Hi5 (BTI-TN-5B1-4) insect cells
T1 sequence (Q9NWZ3 1-460): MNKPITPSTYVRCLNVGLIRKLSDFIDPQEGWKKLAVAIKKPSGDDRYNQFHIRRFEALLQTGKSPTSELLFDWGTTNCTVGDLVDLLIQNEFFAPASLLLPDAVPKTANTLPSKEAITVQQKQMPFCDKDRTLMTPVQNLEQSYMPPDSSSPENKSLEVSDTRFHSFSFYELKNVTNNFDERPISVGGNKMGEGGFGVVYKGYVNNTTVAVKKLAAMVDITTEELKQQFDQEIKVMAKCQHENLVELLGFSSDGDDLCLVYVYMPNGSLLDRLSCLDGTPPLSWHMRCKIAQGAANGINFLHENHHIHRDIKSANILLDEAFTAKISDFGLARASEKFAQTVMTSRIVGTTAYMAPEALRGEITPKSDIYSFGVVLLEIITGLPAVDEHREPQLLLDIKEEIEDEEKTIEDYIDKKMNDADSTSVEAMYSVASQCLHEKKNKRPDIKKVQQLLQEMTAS
Summary of the method: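 Signal was the 665/620 nm emission ratio from a europium anti-mouse-IgG, anti-phosphoserine antibody and streptavidin-XL665 complex formed over 1 h at 22°C. It was scaled between no-enzyme (100%) and no-compound (0%) wells. Beforehand, compounds (20 µM down to 0.073 nM, 11 points) sat 15 min with roughly 0.2 nM insect-cell-expressed GST-human IRAK4 before phosphorylation of a biotinylated peptide substrate.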

[1] = Metabolic stability in human liver microsomes; settings: 1 µM compound; for CLblood, human microsomes: hepatic in vivo blood clearance calculated with well stirred liver model, '(stable)' given beside < 0.01; for Fmax, human microsomes: maximal oral bioavailability calculated with well stirred liver model, 0.5 mg/mL protein, '(stable)' given beside 100

SMILES | pIC50 (human IRAK4) | CLblood, human microsomes [1] | Fmax, human microsomes [1]
CS(=O)(=O)[C@H]1C[C@H](Nc2nc(N3C[C@@H](O)[C@H](F)C3)c3cnn(-c4cccc(C(F)F)c4)c3n2)C1 [II-16-3, (3R,4R)-1-(1-[3-(difluoromethyl)phenyl]-6-{[trans-3-(methanesulfonyl)cyclobutyl]-amino)-1H-pyrazolo[3,4-d]pyrimidin-4-yl)-4-fluoropyrrolidin-3-ol] | 8.79 | 0.08 L/h/kg | 94%
O=C1C[C@@H](Nc2nc(N3C[C@H](O)[C@@H](O)C3)c3cnn(-c4cccc(C(F)(F)F)c4)c3n2)CN1 [Example I-20-1, (4R)-4-({4-[(3S,4S)-3,4-dihydroxypyrrolidin-1-yl]-1-[3-(trifluoromethyl)phenyl]-1H-pyrazolo[3,4-d]pyrimidin-6-yl}amino)pyrrolidin-2-one] | 6.56 | – | –
O=C1C[C@H](Nc2nc(N3C[C@H](O)[C@@H](O)C3)c3cnn(-c4cccc(C(F)(F)F)c4)c3n2)CN1 [Example I-20-2, (4S)-4-({4-[(3S,4S)-3,4-dihydroxypyrrolidin-1-yl]-1-[3-(trifluoromethyl)phenyl]-1H-pyrazolo[3,4-d]pyrimidin-6-yl}amino)pyrrolidin-2-one] | 7.83 | – | –
O=S1(=O)CCN(C2CN(c3nc(N[C@@H]4CCOC4)nc4c3cnn4-c3cccc(C(F)(F)F)c3)C2)CC1 [Example I-26-1, 4-[3-(1,1-dioxidothiomorpholin-4-yl)azetidin-1-yl]-N-[(3R)-tetrahydrofuran-3-yl]-1-[3-(trifluoromethyl)phenyl]-1H-pyrazolo[3,4-d]pyrimidin-6-amine] | 7.43 | – | –
CC(C)(O)C1CCN(c2nc(N[C@@H]3CCCNC3=O)nc3c2cnn3-c2cccc(C(F)(F)F)c2)CC1 [Example I-11-2, (3R)-3-({4-[4-(2-hydroxypropan-2-yl)piperidin-1-yl]-1-[3-(trifluoromethyl)phenyl]-1H-pyrazolo[3,4-d]pyrimidin-6-yl}amino)piperidin-2-one] | 6.82 | – | –
CC(C)(O)C1CCN(c2nc(N[C@H]3CCCNC3=O)nc3c2cnn3-c2cccc(C(F)(F)F)c2)CC1 [Example I-11-1, (3S)-3-({4-[4-(2-hydroxypropan-2-yl)piperidin-1-yl]-1-[3-(trifluoromethyl)phenyl]-1H-pyrazolo[3,4-d]pyrimidin-6-yl}amino)piperidin-2-one] | 6.86 | – | –
CC1(O)CN(c2nc(N[C@H]3CCN(S(C)(=O)=O)C3)nc3c2cnn3-c2cccc(C(F)(F)F)c2)C1 [Example I-41-2, 3-methyl-1-(6-{[(3S)-1-(methylsulfonyl)pyrrolidin-3-yl]amino}-1-[3-(trifluoromethyl)-phenyl]-1H-pyrazolo[3,4-d]pyrimidin-4-yl)azetidin-3-ol] | 6.40 | – | –

The remaining lines, values ahead:

pIC50 (human IRAK4) | CLblood, human microsomes [1] | Fmax, human microsomes [1] | SMILES
8.86 | 0.04 L/h/kg | 97% | CS(=O)(=O)N1CC(Nc2nc(N3CCC(C4(N)CC4)CC3)c3cnn(-c4cccc(C(F)F)c4)c3n2)C1 [II-20, 4-[4-(1-aminocyclopropyl)piperidin-1-yl]-1-[3-(difluoromethyl)phenyl]-N-[1-(methylsulfonyl)azetidin-3-yl]-1H-pyrazolo[3,4-d]pyrimidin-6-amine]
8.49 | 0.39 L/h/kg | 71% | O=C1CCCN1C1CN(c2nc(N[C@H]3C[C@@H](O)C3)nc3c2cnn3-c2cccc(C(F)(F)F)c2)C1 [Example I-112, 1-(1-{6-[(cis-3-hydroxycyclobutyl)amino]-1-[3-(trifluoromethyl)phenyl]-1H-pyrazolo[3,4-d]pyrimidin-4-yl}azetidin-3-yl)pyrrolidin-2-one]
8.04 | 0.68 L/h/kg | 48% | CC1(N2CCOCC2)CN(c2nc(NC3CCS(=O)(=O)CC3)nc3c2cnn3-c2cccc(C(F)(F)F)c2)C1 [Example I-106, N-(1,1-dioxidotetrahydro-2H-thiopyran-4-yl)-4-[3-methyl-3-(morpholin-4-yl)azetidin-1-yl]-1-[3-(trifluoromethyl)phenyl]-1H-pyrazolo[3,4-d]pyrimidin-6-amine]
7.90 | < 0.01 (stable) L/h/kg | 100 (stable) % | CN1CC[C@H](Nc2nc(N3C[C@@H](O)[C@H](O)C3)c3cnn(-c4cccc(C(F)(F)F)c4)c3n2)C1 [Example I-31, (3R,4R)-1-(6-{[(3S)-1-methylpyrrolidin-3-yl]amino}-1-[3-(trifluoromethyl)phenyl]-1H-pyrazolo[3,4-d]pyrimidin-4-yl)pyrrolidine-3,4-diol]
7.07 | – | – | O=C(O)CC1CN(c2nc(NC3CCS(=O)(=O)CC3)nc3c2cnn3-c2cccc(C(F)F)c2)C1 [II-9, (1-{1-[3-(difluoromethyl)phenyl]-6-[(1,1-dioxidotetrahydro-2H-thiopyran-4-yl)amino]-1H-pyrazolo[3,4-d]pyrimidin-4-yl}azetidin-3-yl)acetic acid]
7.94 | – | – | CCS(=O)(=O)[C@H]1C[C@H](Nc2nc(N3CC(N4CCOCC4)C3)c3cnn(-c4cccc(C(F)(F)F)c4)c3n2)C1 [Example I-82, N-[trans-3-(ethylsulfonyl)cyclobutyl]-4-[3-(morpholin-4-yl)azetidin-1-yl]-1-[3-(trifluoromethyl)phenyl]-1H-pyrazolo[3,4-d]pyrimidin-6-amine]
6.75 | – | – | NC1CCN(c2nc(N[C@H]3C[C@H](O)C3)nc3c2cnn3-c2cccc(C(F)(F)F)c2)CC1(F)F (mixture of isomers) [Example I-104, trans-3-({4-[(4RS)-4-amino-3,3-difluoropiperidin-1-yl]-1-[3-(trifluoromethyl)phenyl]-1H-pyrazolo[3,4-d]pyrimidin-6-yl}amino)cyclobutanol]
6.35 | – | – | CC(C)(O)C1CCN(c2nc(N[C@@H]3CNC(=O)C3(C)C)nc3c2cnn3-c2cccc(C(F)(F)F)c2)CC1 [Example I-17, (4S)-4-({4-[4-(2-hydroxypropan-2-yl)piperidin-1-yl]-1-[3-(trifluoromethyl)phenyl]-1H-pyrazolo[3,4-d]pyrimidin-6-yl}amino)-3,3-dimethylpyrrolidin-2-one]
8.10 | – | – | CC1(N2CCOCC2)CN(c2nc(N[C@H]3C[C@](C)(O)C3)nc3c2cnn3-c2cccc(C(F)(F)F)c2)C1 [Example I-123, trans-1-methyl-3-({4-[3-methyl-3-(morpholin-4-yl)azetidin-1-yl]-1-[3-(trifluoromethyl)-phenyl]-1H-pyrazolo[3,4-d]pyrimidin-6-yl}amino)cyclobutanol]
7.85 | – | – | O[C@@H]1CC[C@H]1Nc1nc(N2CC(N3CCOCC3)C2)c2cnn(-c3cccc(C(F)(F)F)c3)c2n1 (relative stereo) [Example I-75, rel-(1R,2R)-2-({4-[3-(morpholin-4-yl)azetidin-1-yl]-1-[3-(trifluoromethyl)phenyl]-1H-pyrazolo[3,4-d]pyrimidin-6-yl}amino)cyclobutanol]
7.77 | – | – | CC(C)(O)C1CN(c2nc(N[C@H]3C[C@@H](O)C3)nc3c2cnn3-c2cccc(C(F)(F)F)c2)C1 [Example I-116, cis-3-({4-[3-(2-hydroxypropan-2-yl)azetidin-1-yl]-1-[3-(trifluoromethyl)phenyl]-1H-pyrazolo[3,4-d]pyrimidin-6-yl}amino)cyclobutanol]
7.07 | – | – | O=S1(=O)CC[C@H](Nc2nc(N3CC(N4CCOCC4)C3)c3cnn(-c4cccc(C(F)(F)F)c4)c3n2)C1 [Example I-34, N-[(3S)-1,1-dioxidotetrahydrothiophen-3-yl]-4-[3-(morpholin-4-yl)azetidin-1-yl]-1-[3-(trifluoromethyl)phenyl]-1H-pyrazolo[3,4-d]pyrimidin-6-amine]
7.61 | – | – | O=S1(=O)CC[C@H](Nc2nc(N3CC(N4CCOCC4)C3)c3cnn(-c4cccc(C(F)F)c4)c3n2)C1 [II-3, 1-[3-(difluoromethyl)phenyl]-N-[(3S)-1,1-dioxidotetrahydrothiophen-3-yl]-4-[3-(morpholin-4-yl)azetidin-1-yl]-1H-pyrazolo[3,4-d]pyrimidin-6-amine]
8.29 | – | – | O[C@H]1C[C@@H](Nc2nc(N3CC(N4CCC(F)(F)C4)C3)c3cnn(-c4cccc(C(F)(F)F)c4)c3n2)C1 [Example I-118, cis-3-({4-[3-(3,3-difluoropyrrolidin-1-yl)azetidin-1-yl]-1-[3-(trifluoromethyl)phenyl]-1H-pyrazolo[3,4-d]pyrimidin-6-yl}amino)cyclobutanol]
7.93 | – | – | CC1(O)CCN(C2CN(c3nc(N[C@H]4C[C@](C)(O)C4)nc4c3cnn4-c3cccc(C(F)(F)F)c3)C2)CC1 [Example I-110, 1-(1-{6-[(trans-3-hydroxy-3-methylcyclobutyl)amino]-1-[3-(trifluoromethyl)phenyl]-1H-pyrazolo[3,4-d]pyrimidin-4-yl}azetidin-3-yl)-4-methylpiperidin-4-ol]
